In patent publication US10730885B1, “Coumarin derivatives” (KING SAUD UNIVERSITY, priority 2019, dated 2020):
In brackets after ≈: the same amount, converted by molar mass. Entries after “also recorded” stand apart in the source; their conditions may differ. Read-outs that look alike come from different tables or passages of the source.

Key:
[1] = DPPH microplate radical scavenging antioxidant assay; format: biochemical; conditions: for IC50: DPPH, 30 min, mean ± SD (n = 3)
Method: The antioxidant activity of the synthesized compounds was measured in terms of hydrogen-donating or radical scavenging ability using the DPPH microplate-based method. Absorbance measurement was obtained using Microplate/cuvette reader (Spectramax M5, Molecular Devices, California, USA). Reference standard compound ascorbic acid was used as the positive control for this assay at concentrations ranging from 1.563 to 200 μg/mL. Test samples were prepared at a starting concentration of 200 μg/mL after mixing with 100 μl of 0.2 mM DPPH methanolic solution. A series of concentrations were tested for the samples in order to determine the 50% inhibitory concentration (IC50). Samples were incubated with DPPH in the dark for 30 min at room temperature (25° C.). The DPPH solution in methanol was prepared daily and stored in a flask covered with aluminum foil. DPPH radicals have an absorption maximum (λmax) at 515 nm, in which the absorbance values were measured and converted into percentage of antioxidant activity.
Methanolic DPPH solution without antioxidant was applied as control and background control was samples in methanol only. IC50 was determined using Graphpad Prism 7 (Graphpad Software Inc. CA, USA). The percentage inhibition was calculated by using the formula:
The assay was carried out in triplicate and performed as much as possible in an area protected against light. The data points are presented as the mean±standard deviation (SD) (n=3).

[2] = test system: trypsin; experiment: Proteinase inhibitory activity (trypsin/casein); format: biochemical; conditions: for % Inhibition of proteinase activity: 250 μg/ml, mean ± SD (n = 3)
Method: For proteinase inhibitory activity, the reaction mixture (2 ml) contained 0.06 mg trypsin, 20 mM Tris HCl buffer (pH 7.4) and 1 ml test sample (250 μg/ml for each compound). The mixture was incubated for 5 min and then 1 ml of 0.8% (w/v) casein was added. The mixture was incubated for an additional 20 min. 1 ml of 10% perchloric acid was added to arrest the reaction. The cloudy suspension was centrifuged, and the absorbance of the supernatant was read at 280 nm. Reference standard compound aspirin was used as the positive control for this assay. The experiment was performed in triplicate. Percentage inhibition of […] was calculated by using the following formula:
[formula] where Acontrol is the absorbance of the control reaction and Atest is the absorbance of the control reaction with sample.

[3] = test system: tested microorganisms; experiment: MIC by two fold serial dilution, summary over the tested microorganisms; format: cell-based; conditions: against gram-positive bacteria
Source text: (§1) The newly synthesized compounds were individually tested for their in vitro antimicrobial activity against the standard bacteria strains of American Type Culture Collection (ATCC), namely, Staphylococcus aureus ATCC 29213, Bacillus subtilis ATCC 6633, Bacillus megaterium ATCC 9885 (Gram-positive), Escherichia coli ATCC 2592 and Pseudomonas aeruginosa ATCC 27953 (Gram-negative). In addition, they were microbiologically tested against the locally isolated Saccharomyces cerevisiae (yeast) and the standard strain of Agricultural Research Service Culture Collection (NRRL) of the yeast like pathogenic fungus Candida albicans NRRL Y-477. The primary screening was carried out using the agar well diffusion method using nutrient agar (NA) medium and Sabourand dextrose agar (SDA) medium for pathological tested bacteria and yeast, respectively.
(§2) The bacteriostatic activity of the active compounds (having IZ>16 mm) was then evaluated using the two fold serial dilution technique. Two-fold serial dilutions of the tested compound solutions were prepared using the proper nutrient broth. The final concentration of the solutions were 1000, 500, 250 and 125 μg/ml. The tubes were then inoculated with the test organisms, grown in their suitable broth at 37° C. for 24 hours for tested microorganisms. (1×10^8 CFU/ml for bacteria and 1×10^6 CFU/ml of yeast), each 5 ml received 0.1 ml of the above inoculum and incubated at 37° C. for 24 h. The lowest concentration showing no growth was taken as the minimum inhibitory concentration (MIC).

[4] = test system: Candida albicans NRRL Y-477; experiment: Agar well diffusion, primary antimicrobial screening; format: cell-based; conditions: for zone of inhibition at 10000 µg/mL: Candida albicans, NRRLY477, C. albicans NRRL Y-477, 100 μL of 10 mg/ml in DMSO, 24 h, read-out: Inhibition Diameter Zone CA; for antifungal activity compared with reference drug: C. albicans
Source text: as §1
(§3) Antimicrobial tests were carried out by the agar well diffusion method using 100 μL of suspension containing 1×10^8 CFU/mL of pathological tested bacteria and 1×10^6 CFU/ml of yeast spread on NA and SDA, respectively. After the media was cooled and solidified, wells (10 mm in diameter) were made in the solidified agar and loaded with 100 μL of tested compound solution prepared by dissolving 10 mg of the chemical compound in one ml of dimethyl sulfoxide (DMSO). The inculcated plates were then incubated for 24 h at 37° C. for bacteria and yeast. Negative controls were prepared using DMSO employed for dissolving the tested compound. Ciprofloxacin (10 mg/ml) and ketoconazole (10 mg/ml) were used as standard for antibacterial and antifungal activity, respectively. After incubation time, antimicrobial activity was evaluated by measuring the zone of inhibition against the test organisms and compared with that of the standard. Antimicrobial activities were expressed as inhibition diameter zones in millimeters (mm). The experiment was carried out in triplicate and the average zone of inhibition was calculated.

[5] = test system: Saccharomyces cerevisiae (local isolate); experiment: as above; format: cell-based; conditions: for zone of inhibition at 10000 µg/mL: Saccharomyces cerevisiae, 24 h, read-out: Inhibition Diameter Zone SC; for antimicrobial activity compared with ketoconazole: S. cerevisiae
Source text: as §1, §3

[6] = test system: Staphylococcus aureus ATCC 29213; experiment: as above; format: cell-based; conditions: for zone of inhibition at 10000 µg/mL: Staphylococcus aureus, ATCC29213, S. aureus ATCC 29213, 100 μL of 10 mg/ml in DMSO, 24 h, read-out: Inhibition Diameter Zone SA; for antibacterial activity compared with ciprofloxacin: S. aureus
Source text: as §1, §3

[7] = test system: formaldehyde-induced paw oedema; experiment: Formaldehyde-induced rat paw oedema; format: in vivo; conditions: 2.5 mg/kg orally
Method: Testing was performed to determine formaldehyde-induced rat paw oedema (edema). For the formaldehyde-induced rat paw oedema (edema) test, female Wister albino rats (150-175 g) were used for determination of the anti-inflammatory activities. The rats were obtained from the animal house colony of the National Organization for Drug Control and Research (NODCAR), Egypt. The animals were kept in standard plastic cages in an air conditioned room at 22±3° C., 55±5% humidity and supplied with standard laboratory diet and water ad libitum. All animal experimental procedures were carried out according to the Ethics Committee of the National Research Centre, Cairo, Egypt and followed the guidelines of the National Institutes of Health, Guide for Care and Use of Laboratory Animals (1985).
The percentage protection against inflammation was calculated by using following formula:
[formula] where Vc is the mean percentage increase in paw volume in the control and Vd is the mean percentage increase in paw volume after injection of the test compound. Values were expressed as mean±standard error (S.E.). Comparisons between mean values were carried out using two-way analysis of variance (ANOVA), followed by Tukey Kramer multiple comparisons test for all acute toxicity study tests. […] was considered significant. Graph pad prism software (version 6) was used to carry out all statistical tests.

[8] = test system: Candida albicans NRRL Y-477; experiment: MIC by two fold serial dilution technique; format: cell-based; conditions: NRRLY477, C. albicans, read-out: Minimal Inhibitory Concentration (MIC) CA
Source text: as §1, §2

[9] = test system: Saccharomyces cerevisiae (local isolate); experiment: MIC by two fold serial dilution technique; format: cell-based; conditions: read-out: Minimal Inhibitory Concentration (MIC) SC
Source text: as §1, §2

[10] = test system: Bacillus subtilis ATCC 6633; experiment: Agar well diffusion, primary antimicrobial screening; format: cell-based; conditions: B. subtilis
Source text: as §1, §3

[11] = test system: tested microorganisms; experiment: Agar well diffusion, summary over the tested microorganisms; format: cell-based; conditions: against one or more microorganisms
Source text: as §1, §3

[12] = test system: Escherichia coli ATCC 2592; experiment: Agar well diffusion, primary antimicrobial screening; format: cell-based
Source text: as §1, §3

[13] = test system: Pseudomonas aeruginosa ATCC 27953; experiment: as above; format: cell-based
Source text: as §1, §3

[14] = test system: Bacillus megaterium ATCC 9885; experiment: as above; format: cell-based; conditions: B. megaterium
Source text: as §1, §3

[15] = S. cerevisiae local isolate, 100 μL of 10 mg/ml in DMSO

Structure (SMILES)	IC50 [1]	% Inhibition of proteinase activity [2] [%]	melting point [°C]	zone of inhibition at 10000 µg/mL [4] [mm]	in vitro anti-proteinase activity compared with aspirin [2]	in vivo anti-inflammatory activity [7]	zone of inhibition at 10000 µg/mL [5, 15] [mm]	further results
Cc1ccc2oc(=O)c3c(c2c1)OC(N)=C(C#N)C3c1ccc([N+](=O)[O-])cc1 (racemic) [Compound 5a, (±)-2-amino-9-methyl-4-(4-nitrophenyl)-5-oxo-4H,5H-pyrano[3,2-c]chromene-3-carbonitrile]	— ((—): inactive (IC50 > 200 μg/mL))	17.38 ± 1.63	259 to 261					MIC [3]: 500 to 1000 µg/mL (≈ 1330 to 2660 µM)
Cc1ccc2oc(=O)c3c(c2c1)OC(N)=C(C(N)=O)C3c1ccc([N+](=O)[O-])cc1 (racemic) [Compound 6a, (±)-2-amino-9-methyl-4-(4-nitrophenyl)-5-oxo-4H, 5H-pyrano[3,2-c]chromene-3-carboxamide]	— ((—): inactive (IC50 > 200 μg/mL))	79.72±4.51	142 to 144	< 15	more potent	significant in vivo anti-inflammatory activity; also recorded: significant protection against inflammation		zone of inhibition at 10000 µg/mL [5]: < 15 mm; zone of inhibition at 10000 µg/mL [6]: < 15 mm
Cc1ccc2oc(=O)c3c(c2c1)OC(N=Cc1ccc(Cl)cc1Cl)=C(C#N)C3c1ccc([N+](=O)[O-])cc1 (racemic) [Compound 8e, (±)-2-((2,4-dichlorobenzylidene)amino)-9-methyl-4-(4-nitrophenyl)-5-oxo-4H,5H-pyrano[3,2-c]chromene-3-carbonitrile]	— ((—): inactive (IC50 > 200 μg/mL))	45.78 ± 1.62	236 to 238	20	as potent			MIC [8]: 500 µg/mL (≈ 939 µM); MIC [9]: 500 µg/mL (≈ 939 µM)
Cc1ccc2oc(=O)c(S(=O)(=O)Nc3ccc(S(=O)(=O)Nc4nccs4)cc3)c(O)c2c1 [Compound 10f, 4-hydroxy-6-methyl-2-oxo-N-(4-(N-(thiazol-2-yl)sulfamoyl)phenyl)-2H-chromene-3-sulfonamide]	83.52 ± 1.849 µg/mL (≈ 169 µM)	43.88 ± 5.6	167 to 169		as potent	significant protection against inflammation		
O=c1oc2ccc(Cl)cc2c(O)c1S(=O)(=O)Nc1ccc(O)cc1 [Compound 11c, 6-Chloro-4-hydroxy-N-(4-hydroxyphenyl)-2-oxo-2H-chromene-3-sulfonamide]	3.87 ± 0.409 µg/mL (≈ 10.5 µM)		250 to 251		as potent	significant protection against inflammation	32	antioxidant activity ([1]; overview): particularly high antioxidant activity; antibacterial activity compared with reference drug [10]: comparable antibacterial activities to the standard; antimicrobial activity compared with ketoconazole [5]: higher than that of the corresponding control drug; antibacterial activity compared with ciprofloxacin [6]: higher than the control ciprofloxacin; antimicrobial activity compared with standard antimicrobials (ciprofloxacin and ketoconazole) [11]: equal to or higher than the standard antimicrobials
CC(=O)c1ccc(NS(=O)(=O)c2c(O)c3cc(Cl)ccc3oc2=O)cc1 [Compound 11e, N-(4-acetylphenyl)-6-chloro-4-hydroxy-2-oxo-2H-chromene-3-sulfonamide]	32.85 ± 1.322 µg/mL (≈ 83.4 µM)		238 to 240	< 15			< 15	antifungal activity compared with reference drug [4]: higher antifungal activity; zone of inhibition at 10000 µg/mL ([12]; Escherichia coli, ATCC2592, E. coli ATCC 2592, 100 μL of 10 mg/ml in DMSO, 24 h, read-out: Inhibition Diameter Zone EC): < 15 mm; zone of inhibition at 10000 µg/mL ([13]; Pseudomonas aeruginosa, ATCC27953, P. aeruginosa ATCC 27953, 100 μL of 10 mg/ml in DMSO, 24 h, read-out: Inhibition Diameter Zone PA): < 15 mm; zone of inhibition at 10000 µg/mL [6]: < 15 mm; % inhibition of rat paw oedema ([7]; one hour after induction of inflammation): 9.45%
O=C(/C=C/c1ccc(Cl)cc1)c1ccc(NS(=O)(=O)c2c(O)c3cc(Cl)ccc3oc2=O)cc1 [Compound 12c, (E)-6-chloro-N-(4-(3-(4-chlorophenyl)acryloyl)phenyl)-4-hydroxy-2-oxo-2H-chromene-3-sulfonamide]	— ((—): inactive (IC50 > 200 μg/mL))	17.6 ± 6.86	157 to 159				31	antibacterial activity compared with ciprofloxacin [14]: comparable to ciprofloxacin; antibacterial activity compared with reference drug [10]: comparable antibacterial activities to the standard; antifungal activity compared with reference drug [4]: higher antifungal activity; antibacterial activity compared with ciprofloxacin ([12]; E. coli): comparable antibacterial potential; antibacterial activity compared with standard ([13]; P. aeruginosa): comparable antibacterial activity to the standard; antimicrobial activity compared with ketoconazole [5]: higher than that of the corresponding control drug; antibacterial activity compared with ciprofloxacin [6]: equal to ciprofloxacin; antimicrobial activity compared with standard antimicrobials (ciprofloxacin and ketoconazole) [11]: equal to or higher than the standard antimicrobials
